The values below come from paper PMC9918898, “Bioactive Clerodane Diterpenoids from the Leaves of Casearia coriacea Vent” (Molecules, 2023).

Data set [1] can be described thus: Hemolysis. Format: cell-based.
Data set [2] relates to Trypanosoma brucei brucei. Briefly: Antitrypanosomal assay (AlamarBlue). In kind it is cell-based. On the procedure:
(§1) A continuous in vitro culture of asexual erythrocyte stages of P. falciparum, chloroquine-sensitive strain 3D7 (ATCC), was maintained following the procedure of Trager and Jensen. Antiplasmodial activity tests were conducted as previously described by the determination of lactate deshydrogenase activity. IC50 was calculated from graphs (GraphPad Prism). T. brucei strain 427 (Molteno Institute in Cambridge, UK) and L. mexicana mexicana (MHOM/BZ/84/BEL46 from Pr. P.A.M Michels of De Duve Institue, UCLouvain) were maintained following the procedure previously described by the team of Pr. Quetin-Leclercq. Antileshmanial and antitrypanosomal assays were conducted as previously described, using the AlamarBlue assay.

The test system of data set [3] is P. falciparum 3D7. The experiment in a line: Antiplasmodial activity, lactate dehydrogenase assay. Format: cell-based. The following applies: Plasmodium falciparum. The protocol:
as §1

Data set [4] concerns Leishmania mexicana mexicana. Briefly: Antileishmanial assay (AlamarBlue). Format: cell-based. On the procedure: as §1
Data set [5] is described as follows: Zebrafish embryos acute toxicity test. Format: in vivo, Danio rerio. To be noted: zebrafish (Danio rerio), in vivo, other: immersion of embryos in treatment solution in wells; zebrafish embryos. On the procedure:
(§2) Adult zebrafish (Danio rerio) were maintained, fulfilling the criteria of the Ethical Committee for the Use of Laboratory Animals at the University of Liège. They were maintained at 28 °C over a period of 14 h day/10 h night, and fertilized eggs were collected, washed with sterile water, and placed in Petri dishes. The embryos were collected, and their chorions were not removed at 24 hpf. Compound 1 was dissolved in DMSO (the maximum final concentration of DMSO was 0.4%). Twenty embryos were used per condition in a 6-well plate. Each well contained 5 mL of the treatment dose (compound 1 or DMSO 0.4%), which was replaced daily for three days. The embryos were observed under a binocular microscope daily until 72 hpf (hours post fertilization).

Data set [6] has as its system zebrafish embryos. The experiment in a line: Zebrafish embryos acute toxicity test. Format: in vivo, Danio rerio. On the procedure: as §2
The subject of data set [7] is MDA-MB-231 cells. The experiment in a line: In vitro cytotoxic activity (Prestoblue). In kind it is cell-based, human. To be noted: towards Plasmodium. On the procedure: (§3) Assays were performed on different human cancer cell lines (MDA-MB-231, PANC-1, and A549 cells obtained from ATCC) to evaluate the cytotoxicity potential of the compounds 1–3, and the crude extract. Cells were grown in high-glucose Dulbecco’s modified Eagle Medium (DMEM, Gibco) supplemented with glutamine (2 mM), penicillin (50 IU/mL), streptomycin (0.5 mg/mL), sodium pyruvate (0.5 mM), and 10% FBS (Foetal Bovine Serum) at 37 °C with 5% CO2 in the air. Compounds were tested in 96-well microplates using the Prestoblue® colorimetric assay for cell viability based on the reduction of resazurin in resorufin as previously described. Briefly, 2500 cells were seeded per well in 100 µL of medium supplemented with adequate concentrations of the tested drugs. After 72 h of drug exposure, 75 µL of diluted solution of Prestoblue reagent were added to each well, and the plate was incubated in the dark for 2 h at 37 °C. Any changes in cell viability were detected using fluorescence spectroscopy. The fluorescence of resorufin was measured using a SpectraMax i3 plate reader (Molecular Devices™) with excitation and emission wavelengths set at 560 nm and 590 nm, respectively. The cell viability was expressed as a percentage relative to control-vehicle-treated cells (DMSO 0.1%). IC50 values were calculated from graphs based on a regression line in which the resorufin fluorescence values were plotted against the logarithm of drug concentration.

The test system of data set [8] is A549 cells. The experiment in a line: In vitro cytotoxic activity (Prestoblue). Format: cell-based, human. To be noted: towards Plasmodium. On the procedure:
as §3

For data set [9], the system named is PANC-1 cells. Briefly: In vitro cytotoxic activity (Prestoblue). Format: cell-based, human. The following applies: towards Plasmodium. On the procedure:
as §3

The subject of data set [10] is zebrafish. The arrangement: method as in PMID 21738604. The following applies: cited from earlier work.
[11] abbreviates: n = 3, mean ± SD, read-out: Trypanosoma IC50 (converted).
[12] abbreviates: 3D7, n = 3, mean ± SD, read-out: P. falciparum 3D7 IC50 (converted).
The mark [13] stands for this setting: n = 3, mean ± SD, read-out: Leishmania IC50 (converted).

Values after ≈ are worked out from the molar mass of the structure shown. Values joined by “and” are separate entries in the source; they are usually repeats but may differ in a detail not shown here. Equal entries are not always repeated. Where two headings read alike, the source gives them in different places.

Molecule `C=CC(=C)CC[C@]1(C)[C@H]2C[C@H](OC(=O)C(C)CC)C=C3[C@H](OC(C)=O)O[C@H](OC(C)=O)[C@@]32[C@H](O)C[C@@H]1C` (relative stereo) [Compound 3, rel-(2S,5R,6R,8S,9S,10R,18S,19R)-18,19-epoxy-18,19-diacetoxy-6-hydroxy-2-(2-methylbutanoyloxy)cleroda-3,13(16),14-triene] had a hemolysis in [1] below 1%. Further, the IC50 in data set [2] (setting [11]) is 3.03 µg/mL and 5.85 µM; in data set [3] (setting [12]), 0.51 µg/mL and 980 nM; in data set [4] (setting [13]), 26 µg/mL and 50.3 µM.

In the case of `C[C@@H]1CC[C@H]2[C@@H](C)C(=O)O[C@@H]3O[C@@]4(C)CC[C@@H]1[C@]32OO4` [Artemisinin, reference compound], the IC50 in data set [3] (setting [12]) is 0.004 ± 0.001 µg/mL (≈ 0.0142 µM).

Consider `C=CC(=C)CC[C@]1(C)[C@H]2C[C@H](OC(=O)CCC)C=C3[C@H](OC(C)=O)O[C@H](OC(C)=O)[C@@]32[C@H](O)C[C@@H]1C` [Compound 1, caseamembrin T], for which the hemolysis in [1] is below 1%. The IC50 in data set [2] (read-out: Trypanosoma IC50) is 3.08 µg/mL and 6.11 µM; in data set [3] (3D7, read-out: P. falciparum 3D7 IC50) it was 0.25 µg/mL and 490 nM; in data set [4] (setting [13]), 26.1 µg/mL and 51.7 µM. The LC50 at 3 days in [5] fell in the range of 1 to 5 µg/mL (≈ 1.98 to 9.91 µM). The same molecule yielded an embryos alive in data set [6] (5 µg/mL, 48 hpf) of 20%. For the same molecule, the state of embryos result in data set [6] (5 µg/mL, 72 hpf) is given as “lifeless”. Besides, the lethality result in [6] (concentrations higher than 5 µg/mL) was “lethal for all embryos”. The “mortality and morphological change” value in data set [6] (up to a concentration of 1 µg/mL) is “neither mortality nor morphological change were observed”. In addition, the “selectivity index against MDA-MB-231” value in data set [7] amounted to 5.4. For the same molecule, the “selectivity index against A549” value in [8] came to 6.5. The “selectivity index against PANC-1” value in data set [9] is on record as 3.

On to `C=CC(=C)CC[C@]1(C)[C@H]2C[C@H](OC(=O)C(C)C)C=C3[C@H](OC(C)=O)O[C@H](OC(C)=O)[C@@]32[C@H](O)C[C@@H]1C` [Compound 2, corymbulosine I], for which the hemolysis in [1] (red blood cells, read-out: Hemolysis) was below 1%. For the same molecule, the IC50 in data set [2] (setting [11]) was 3 µg/mL and 5.95 µM; in data set [3] (setting [12]), 0.4 µg/mL and 790 nM; in data set [4] (setting [13]), 10.3 µg/mL and 20.4 µM.

Take `N=C(N)c1ccc(OCCCCCOc2ccc(C(=N)N)cc2)cc1` [Pentamidine, reference compound]: the IC50 in data set [4] (read-out: Leishmania IC50) is 0.02 µg/mL and 60 nM.

Consider `Cc1ccc(C(=O)Nc2ccc(S(=O)(=O)O)c3cc(S(=O)(=O)O)cc(S(=O)(=O)O)c23)cc1NC(=O)c1cccc(NC(=O)Nc2cccc(C(=O)Nc3cc(C(=O)Nc4ccc(S(=O)(=O)O)c5cc(S(=O)(=O)O)cc(S(=O)(=O)O)c45)ccc3C)c2)c1` [Suramine, reference compound], for which the IC50 in data set [2] (setting [11]) was 0.05 µg/mL and 40 nM.

As for `C[C@H]1O[C@@H](O[C@H]2[C@@H](O)C[C@H](O[C@H]3[C@@H](O)C[C@H](O[C@H]4CC[C@@]5(C)[C@H](CC[C@@H]6[C@@H]5C[C@@H](O)[C@]5(C)[C@@H](C7=CC(=O)OC7)CC[C@]65O)C4)O[C@@H]3C)O[C@@H]2C)C[C@H](O)[C@@H]1O` [digoxin], the “lethal dose 50 (LC50)” value in data set [10] is given as 0.5 ± 0.006 µg/mL.

On to `CN1CCC[C@H]1c1cccnc1` [nicotine], for which the “lethal dose 50 (LC50)” value in data set [10] is listed as 35.1 ± 0.5 µg/mL.

As for `CC(=O)Nc1ccc(O)cc1` [paracetamol], the “lethal dose 50 (LC50)” value in [10] is recorded as 535.8 ± 17.1 µg/mL.
